Values after ≈ are worked out from the molar mass of the structure shown.
Legend:
Aspergillus flavus [1] = assay: Antifungal activity against Aspergillus flavus MTCC 277 assessed as zone of inhibition at 100 ug/ml after 30 hrs by cup plate method; type: functional; settings: MTCC 277, 30 h, read-out: IZ
Staphylococcus aureus [2] = assay: Antibacterial activity against Staphylococcus aureus MTCC 096 after 14 hrs by serial dilution method; type: functional; settings: MTCC 096, 14 h
Staphylococcus aureus [3] = assay: Antibacterial activity against Staphylococcus aureus MTCC 096 assessed as zone of inhibition at 100 ug/ml after 14 hrs by cup plate method; type: functional; settings: MTCC 096, 14 h, read-out: IZ
Candida albicans [4] = assay: Antifungal activity against Candida albicans MTCC 227 assessed as zone of inhibition at 100 ug/ml after 30 hrs by cup plate method; type: functional; settings: MTCC 227, 30 h, read-out: IZ
Escherichia coli [5] = assay: Antibacterial activity against Escherichia coli MTCC 443 after 14 hrs by serial dilution method; type: functional; settings: MTCC 443, 14 h
Bacillus subtilis [6] = assay: Antibacterial activity against Bacillus subtilis MTCC 441 after 14 hrs by serial dilution method; type: functional; settings: MTCC 441, 14 h
Aspergillus niger [7] = assay: Antifungal activity against Aspergillus niger MTCC 282 assessed as zone of inhibition at 100 ug/ml after 30 hrs by cup plate method; type: functional; settings: MTCC 282, 30 h, read-out: IZ
Candida albicans [8] = assay: Antifungal activity against Candida albicans MTCC 227 after 30 hrs by serial dilution method; type: functional; settings: MTCC 227, 30 h
Salmonella typhi [9] = assay: Antibacterial activity against Salmonella typhi MTCC 733 assessed as zone of inhibition at 100 ug/ml after 14 hrs by cup plate method; type: functional, Salmonella enterica subsp. enterica serovar Typhi; settings: Salmonella enterica, MTCC 733, 14 h; read-out: IZ
Aspergillus fumigatus [10] = assay: Antifungal activity against Aspergillus fumigatus MTCC 343 after 30 hrs by serial dilution method; type: functional; settings: MTCC 343, 30 h
Klebsiella pneumoniae [11] = assay: Antibacterial activity against Klebsiella pneumoniae MTCC 432 after 14 hrs by serial dilution method; type: functional; settings: MTCC 432, 14 h
Aspergillus niger [12] = assay: Antifungal activity against Aspergillus niger MTCC 282 after 30 hrs by serial dilution method; type: functional; settings: MTCC 282, 30 h
Klebsiella pneumoniae [13] = assay: Antibacterial activity against Klebsiella pneumoniae MTCC 432 assessed as zone of inhibition at 100 ug/ml after 14 hrs by cup plate method; type: functional; settings: MTCC 432, 14 h, read-out: IZ
Aspergillus fumigatus [14] = assay: Antifungal activity against Aspergillus fumigatus MTCC 343 assessed as zone of inhibition at 100 ug/ml after 30 hrs by cup plate method; type: functional; settings: MTCC 343, 30 h, read-out: IZ
Salmonella typhi [15] = assay: Antibacterial activity against Salmonella typhi MTCC 733 after 14 hrs by serial dilution method; type: functional, Salmonella enterica subsp. enterica serovar Typhi; settings: Salmonella enterica, MTCC 733, 14 h
Escherichia coli [16] = assay: Antibacterial activity against Escherichia coli MTCC 443 assessed as zone of inhibition at 100 ug/ml after 14 hrs by cup plate method; type: functional; settings: MTCC 443, 14 h, read-out: IZ
Bacillus subtilis [17] = assay: Antibacterial activity against Bacillus subtilis MTCC 441 assessed as zone of inhibition at 100 ug/ml after 14 hrs by cup plate method; type: functional; settings: MTCC 441, 14 h, read-out: IZ
Aspergillus flavus [18] = assay: Antifungal activity against Aspergillus flavus MTCC 277 after 30 hrs by serial dilution method; type: functional; settings: MTCC 277, 30 h

Compound | zone of inhibition at 100 µg/mL (Aspergillus flavus [1]) | MIC (Staphylococcus aureus [2]) | zone of inhibition at 100 µg/mL (Staphylococcus aureus [3]) | zone of inhibition at 100 µg/mL (Candida albicans [4]) | MIC (Escherichia coli [5]) | MIC (Bacillus subtilis [6]) | zone of inhibition at 100 µg/mL (Aspergillus niger [7]) | MIC (Candida albicans [8]) | zone of inhibition at 100 µg/mL (Salmonella typhi [9]) | MIC (Aspergillus fumigatus [10]) | MIC (Klebsiella pneumoniae [11]) | MIC (Aspergillus niger [12]) | zone of inhibition at 100 µg/mL (Klebsiella pneumoniae [13]) | zone of inhibition at 100 µg/mL (Aspergillus fumigatus [14]) | MIC (Salmonella typhi [15]) | zone of inhibition at 100 µg/mL (Escherichia coli [16]) | zone of inhibition at 100 µg/mL (Bacillus subtilis [17]) | MIC (Aspergillus flavus [18])
O=c1cc(C(F)(F)F)n(C/C=C/CN2CCCC2)c2ccc(F)cc12 | 12 mm | 6.25 µg/mL (≈ 17.6 µM) | 15 mm | 15 mm | 50 µg/mL (≈ 141 µM) | 12.5 µg/mL (≈ 35.3 µM) | 12 mm | 6.25 µg/mL (≈ 17.6 µM) | < 10 mm | 12.5 µg/mL (≈ 35.3 µM) | 12.5 µg/mL (≈ 35.3 µM) | 12.5 µg/mL (≈ 35.3 µM) | 12 mm | 12 mm | 25 µg/mL (≈ 70.6 µM) | < 10 mm | 12 mm | 12.5 µg/mL (≈ 35.3 µM)
O=c1cc(C(F)(F)F)n(CCCCN2CCCC2)c2ccc(F)cc12 | 12 mm | 6.25 µg/mL (≈ 17.5 µM) | 14 mm | 16 mm | 50 µg/mL (≈ 140 µM) | 6.25 µg/mL (≈ 17.5 µM) | 12 mm | 6.25 µg/mL (≈ 17.5 µM) | 12 mm | 12.5 µg/mL (≈ 35.1 µM) | 12.5 µg/mL (≈ 35.1 µM) | 12.5 µg/mL (≈ 35.1 µM) | 13 mm | 12 mm | 12.5 µg/mL (≈ 35.1 µM) | < 10 mm | 15 mm | 12.5 µg/mL (≈ 35.1 µM)
O=c1cc(C(F)(F)F)n(C/C=C/CN2CCCCC2)c2ccc(F)cc12 | < 10 mm | 12.5 µg/mL (≈ 33.9 µM) | 13 mm | 12 mm | 50 µg/mL (≈ 136 µM) | 12.5 µg/mL (≈ 33.9 µM) | 17 mm | 12.5 µg/mL (≈ 33.9 µM) | < 10 mm | 25 µg/mL (≈ 67.9 µM) | 12.5 µg/mL (≈ 33.9 µM) | 6.25 µg/mL (≈ 17 µM) | 12 mm | < 10 mm | 25 µg/mL (≈ 67.9 µM) | < 10 mm | 12 mm | 25 µg/mL (≈ 67.9 µM)
O=c1cc(C(F)(F)F)n(C/C=C/CN2CCOCC2)c2ccc(F)cc12 | < 10 mm | 12.5 µg/mL (≈ 33.8 µM) | 12 mm | 15 mm | 25 µg/mL (≈ 67.5 µM) | 6.25 µg/mL (≈ 16.9 µM) | 17 mm | 6.25 µg/mL (≈ 16.9 µM) | < 10 mm | 25 µg/mL (≈ 67.5 µM) | 25 µg/mL (≈ 67.5 µM) | 6.25 µg/mL (≈ 16.9 µM) | < 10 mm | < 10 mm | 50 µg/mL (≈ 135 µM) | < 10 mm | 14 mm | 25 µg/mL (≈ 67.5 µM)
CN1CCN(C/C=C/Cn2c(C(F)(F)F)cc(=O)c3cc(F)ccc32)CC1 | 12 mm | 6.25 µg/mL (≈ 16.3 µM) | 15 mm | 15 mm | 50 µg/mL (≈ 130 µM) | 6.25 µg/mL (≈ 16.3 µM) | 12 mm | 6.25 µg/mL (≈ 16.3 µM) | 12 mm | 12.5 µg/mL (≈ 32.6 µM) | 12.5 µg/mL (≈ 32.6 µM) | 12.5 µg/mL (≈ 32.6 µM) | 12 mm | 12 mm | 12.5 µg/mL (≈ 32.6 µM) | < 10 mm | 14 mm | 12.5 µg/mL (≈ 32.6 µM)
COc1ccc2c(c1)c(=O)cc(C(F)(F)F)n2CCCCN1C(=O)c2ccccc2C1=O | < 10 mm | 6.25 µg/mL (≈ 14.1 µM) | 16 mm | 15 mm | 50 µg/mL (≈ 113 µM) | 12.5 µg/mL (≈ 28.1 µM) | 12 mm | 6.25 µg/mL (≈ 14.1 µM) | < 10 mm | 25 µg/mL (≈ 56.3 µM) | 6.25 µg/mL (≈ 14.1 µM) | 12.5 µg/mL (≈ 28.1 µM) | 16 mm | < 10 mm | 25 µg/mL (≈ 56.3 µM) | < 10 mm | 13 mm | 25 µg/mL (≈ 56.3 µM)
O=C1c2ccccc2C(=O)N1CCCCOc1cc(C(F)(F)F)nc2ccccc12 | < 10 mm | 6.25 µg/mL (≈ 15.1 µM) | 16 mm | 17 mm | 50 µg/mL (≈ 121 µM) | 6.25 µg/mL (≈ 15.1 µM) | 17 mm | 6.25 µg/mL (≈ 15.1 µM) | < 10 mm | 12.5 µg/mL (≈ 30.2 µM) | 12.5 µg/mL (≈ 30.2 µM) | 6.25 µg/mL (≈ 15.1 µM) | 12 mm | 12 mm | 25 µg/mL (≈ 60.3 µM) | < 10 mm | 16 mm | 25 µg/mL (≈ 60.3 µM)
O=C1c2ccccc2C(=O)N1CCCCOc1cc(C(F)(F)F)nc2ccc(F)cc12 | 12 mm | 6.25 µg/mL (≈ 14.5 µM) | 15 mm | 15 mm | 25 µg/mL (≈ 57.8 µM) | 6.25 µg/mL (≈ 14.5 µM) | 17 mm | 6.25 µg/mL (≈ 14.5 µM) | 12 mm | 12.5 µg/mL (≈ 28.9 µM) | 12.5 µg/mL (≈ 28.9 µM) | 6.25 µg/mL (≈ 14.5 µM) | 12 mm | 12 mm | 12.5 µg/mL (≈ 28.9 µM) | < 10 mm | 15 mm | 12.5 µg/mL (≈ 28.9 µM)
Cc1ccc2nc(C(F)(F)F)cc(OCCCCN3C(=O)c4ccccc4C3=O)c2c1 | < 10 mm | 6.25 µg/mL (≈ 14.6 µM) | 15 mm | 15 mm | 50 µg/mL (≈ 117 µM) | 6.25 µg/mL (≈ 14.6 µM) | 17 mm | 6.25 µg/mL (≈ 14.6 µM) | 12 mm | 12.5 µg/mL (≈ 29.2 µM) | 6.25 µg/mL (≈ 14.6 µM) | 6.25 µg/mL (≈ 14.6 µM) | 15 mm | 12 mm | 12.5 µg/mL (≈ 29.2 µM) | < 10 mm | 15 mm | 50 µg/mL (≈ 117 µM)
O=c1cc(C(F)(F)F)n(CCCCN2CCCCC2)c2ccc(F)cc12 | 12 mm | 12.5 µg/mL (≈ 33.7 µM) | 12 mm | 15 mm | 50 µg/mL (≈ 135 µM) | 25 µg/mL (≈ 67.5 µM) | 12 mm | 6.25 µg/mL (≈ 16.9 µM) | < 10 mm | 25 µg/mL (≈ 67.5 µM) | 12.5 µg/mL (≈ 33.7 µM) | 12.5 µg/mL (≈ 33.7 µM) | 12 mm | < 10 mm | 50 µg/mL (≈ 135 µM) | < 10 mm | < 10 mm | 12.5 µg/mL (≈ 33.7 µM)
O=c1cc(C(F)(F)F)n(CCCCN2CCOCC2)c2ccc(F)cc12 | < 10 mm | 6.25 µg/mL (≈ 16.8 µM) | 15 mm | 15 mm | 50 µg/mL (≈ 134 µM) | 12.5 µg/mL (≈ 33.6 µM) | 13 mm | 6.25 µg/mL (≈ 16.8 µM) | < 10 mm | 25 µg/mL (≈ 67.1 µM) | 25 µg/mL (≈ 67.1 µM) | 12.5 µg/mL (≈ 33.6 µM) | < 10 mm | < 10 mm | 25 µg/mL (≈ 67.1 µM) | < 10 mm | 13 mm | 25 µg/mL (≈ 67.1 µM)
CN1CCN(CCCCn2c(C(F)(F)F)cc(=O)c3cc(F)ccc32)CC1 | < 10 mm | 6.25 µg/mL (≈ 16.2 µM) | 15 mm | 12 mm | 50 µg/mL (≈ 130 µM) | 6.25 µg/mL (≈ 16.2 µM) | 14 mm | 12.5 µg/mL (≈ 32.4 µM) | < 10 mm | 12.5 µg/mL (≈ 32.4 µM) | 25 µg/mL (≈ 64.9 µM) | 6.25 µg/mL (≈ 16.2 µM) | < 10 mm | 12 mm | 50 µg/mL (≈ 130 µM) | < 10 mm | 15 mm | 25 µg/mL (≈ 64.9 µM)
O=C(O)c1cn(C2CC2)c2cc(N3CCNCC3)c(F)cc2c1=O [CIPROFLOXACIN] |  |  | 17 mm |  |  | 6.25 µg/mL (≈ 18.9 µM) |  |  | 14 mm |  | 6.25 µg/mL (≈ 18.9 µM) |  | 18 mm |  |  | 18 mm | 18 mm | 
Clc1ccc(COC(Cn2ccnc2)c2ccc(Cl)cc2Cl)c(Cl)c1 (stereo unspecified) [MICONAZOLE] | 17 mm |  |  | 17 mm |  |  | 17 mm | 6.25 µg/mL (≈ 15 µM) |  | 12.5 µg/mL (≈ 30 µM) |  | 6.25 µg/mL (≈ 15 µM) |  | 14 mm |  |  |  | 6.25 µg/mL (≈ 15 µM)

Source: ChEMBL document CHEMBL2380193, “New trifluoromethyl quinolone derivatives: synthesis and investigation of antimicrobial properties” (2013)
